Assay results from patent US10137185B2, “PAP peptide analogues” (THE NOTTINGHAM TRENT UNIVERSITY, priority 2014, dated 2018).
Several values for one entry are separate records, joined by “and”; a condition that tells them apart may be missing. Identical values can stand only once.

Test system: PBMCs isolated from patients with prostate cancer
Assay: IFNγ ELISPOT of pre- and post-vaccination PBMCs, Norway clinical trial (mRNA-transfected DC vaccine)
Format: cell-based, human
Settings: for post-vaccination samples with significantly higher peptide-specific IFNγ response than pre-vaccination: of 8 responder samples, 48 hours
Excerpt: FIG. 4. The flow chart of Norway clinical trial. Monocytes were isolated from patients with prostate cancer and cultured in vitro. mRNA isolated from the prostate cancer cell lines DU145, LNCAP and PC3 were transfected into immature dendritic cells (DCs). The DCs were then allowed to mature and were re-infused back into the patient. PBMCs isolated a week before (pre-vaccination) and 12 weeks after immunisations (post-vaccination) were used in this study. The patients were categorised as responders and non-responders based on the PSA levels and also metastatic state of the disease based on bone scans post immunisation.
FIG. 5. IFNγ response of PBMCs isolated from patients with prostate cancer who had responded to the therapy and were categorised as being ‘responders’ on the basis of the criteria detailed above (Norway Clinical Trial) after re-stimulation with PAP-115-123 epitope peptide (10 μg), as determined using the ELISPOT assay. PBMCs isolated pre-vaccination (black bars) and post vaccination (red bars) are compared. Patient samples are represented as p10, p12, p15 etc. The cryopreserved PBMCs were washed and rested overnight, at which time 4×10^4 cells were added to each well of an ELISPOT plate. PAP-115-123 epitope peptide (10 μg) was added to each well and the cells cultured for 48 hours. The plates were then washed according to the manufacturer's protocol. PBMCs cultured with an HIV-derived peptide or no added peptide were used as controls. Comparisons of means (±SEM) between groups (pre-vaccination or post-vaccination PBMCs) are made using an unpaired t test.
FIG. 6. IFNγ response of PBMCs isolated from patients with prostate cancer who had responded to the therapy and were categorised as being ‘responders’ on the basis of the criteria detailed above after re-stimulation with PAP-115-123 epitope peptide (1 μg), as determined using the ELISPOT assay. PBMCs isolated pre-vaccination (black bars) and post-vaccination (red bars) are compared here. Patient samples are represented as p10, p12, p15 etc. The cryopreserved PBMCs were washed and rested overnight, at which time 4×10^4 cells were added to each well of an ELISPOT plate. PAP-115-123 epitope peptide (1 μg) was added to each well and the cells cultured for 48 hours. The plates were then washed according to manufacturer's protocol. PBMCs cultured with HIV-derived peptide or no added peptide were used as controls. Comparisons of means (±SEM) between groups (pre-vaccination or post-vaccination PBMCs) are made using an unpaired t test.
FIG. 7. Fold change in the IFNγ response generated by PBMCs isolated from patients with prostate cancer from the Norway Clinical Trial after restimulation with PAP-115-123 epitope peptide (10 μg), as determined using the ELISPOT assay. Patients that were reported to have responded to the treatment (p10, p12, p15, p19, p101, p102, p107, p108) are indicated by red bars. […] The cryopreserved PBMCs were washed and rested overnight, at which time 4×10^4 cells were added to each well of an ELISPOT plate. PAP-115-123 epitope peptide (10 μg) was added to each well and the plates cultured for 48 hours. The plates were then washed according to the manufacturer's protocol. PBMCs cultured with HIV-derived peptide or no added peptide were used as control.
The presence of circulating PAP-115-123 specific T cells in PBMCs isolated from patients with prostate cancer following treatment with DCs that had been transfected with mRNA isolated from the prostate cancer cell lines (DU145, LNCaP and PC3) as part of a Norwegian Clinical Trial which was performed by Professor Gustav Gaudernack was determined on the basis of their responsiveness to PAP-derived peptides. In the trial, DCs were isolated from patients with prostate cancer and cultured DCs were transfected with mRNA isolated from the prostate cancer cell lines (DU145, LNCaP and PC3). The matured DCs were re-infused back into the patients (FIG. 4). […]

SAMTNLAAL [PAP-115-123]
number of spots, pre-vaccination samples (1 μg peptide): 10-30 spots | number of spots, post-vaccination samples (1 μg peptide, patients p12, p19, p101, p102, p107, p108): 60-140 spots | number of spots, pre-vaccination samples (10 μg peptide): 10-30 spots | number of spots, post-vaccination samples (10 μg peptide, patients p12, p15, p19, p102, p107, p108): 60-160 spots | fold decrease in IFNγ response post vs pre vaccination, non-responders (4 non-responder patients, 10 μg peptide, ELISPOT): 2-12 fold and 2-10 fold | fold higher peptide-specific IFNγ response post vs pre vaccination, responders (8 responder patients, 10 μg peptide, ELISPOT): 2-4 fold | post-vaccination samples with significantly higher peptide-specific IFNγ response than pre-vaccination (1 μg peptide): 6 | post-vaccination samples with significantly higher peptide-specific IFNγ response than pre-vaccination (10 μg peptide): 6
